From publication PMC10041534, “Development of Fluorescent 4-[4-(3H-Spiro[isobenzofuran-1,4′-piperidin]-1′-yl)butyl]indolyl Derivatives as High-Affinity Probes to Enable the Study of σ Receptors via Fluorescence-Based Techniques” (Journal of Medicinal Chemistry, 2023)

Columns and labels:
[1] = RP-HPLC degradation study in PBS buffer; format: physicochemical; conditions: 37 °C, RP-HPLC over 24 h
Protocol: page 12: Figure S10. RP-HPLC degradation study in buffer of compounds 19 (A) and 29 (B). Compounds were dissolved in a solution of PBS with 5% of DMSO. Then the solution was divided in 4 vials, one was used to study t0 and the other three were incubated at 37 °C for 2h, 6h and 24 h, respectively. […]

σ2 receptor [2] = molecular target: T1, σ2 receptor (Homo sapiens, UniProt Q5BJF2); test: Flow cytometry saturation binding assay in MCF7 cells; conditions: σ1 masked by (+)-pentazocine
T1 sequence (Q5BJF2 whole entry): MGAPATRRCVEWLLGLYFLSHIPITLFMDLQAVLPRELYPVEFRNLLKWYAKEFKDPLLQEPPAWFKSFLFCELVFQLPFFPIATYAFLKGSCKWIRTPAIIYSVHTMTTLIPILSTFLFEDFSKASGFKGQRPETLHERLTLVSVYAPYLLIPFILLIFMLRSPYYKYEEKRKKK
Protocol: Similarly, 2 × 10^5 MCF7 cells/well were seeded in a 12-well plate and allowed to recover for 24 h at 37 °C.
At the end of the incubation periods, cells were washed twice with PBS, detached with 200 mL of Cell Dissociation Solution (Sigma Chemical Co.) for 10 min at 37 °C, centrifuged at 13000g for 5 min, and resuspended in 500 mL of PBS. The fluorescence was recorded using a Bio-Guava easyCyte 5 Flow Cytometry System (Millipore, Billerica, MA), with a 530 nm band-pass filter. For each analysis, 50000 events were collected and analyzed with the InCyte software (Millipore).

σ2 receptor [3] = molecular target: T1, σ2 receptor; test: Spinning disk confocal microscopy on living MCF7 cells; format: cell-based; set-up: This cell line was selected on the basis of its high σ2 receptor expression levels; endogenous in cells; host or cells: MCF7 (and MCF7KO, partial TMEM97 knockdown by shRNA); conditions: for subcellular localization in living MCF7 cells: 0.05 μM, 30 min; for mitochondrial localization upon co-treatment with nonfluorescent DTG: 20 μM DTG
Protocol: MCF7 cells (2.4 × 10^4 cells/well) were seeded on IBIDI slides (coated with polymers, Science Services) and incubated at 37 °C with 5% CO2 for 48 h. Afterward, ProlongLife (Invitrogen, catalog no. P36974) was added in a 1:100 dilution to the cells and incubated for 1 h. Subsequently, the medium was removed, and the cells were stained with 250 nM MitoTracker-Bodipy FL (Invitrogen, catalog no. P36974) in phenol red-free medium for 30 min at 37 °C with 5% CO2. […] In addition, Hoechst 33342 (0.05 μM) was added 15 min prior to measurement to counterstain for nuclei. Finally, z-stacks of the living cells were performed using an Olympus IXplore SpinSR spinning disk confocal microscope. In total, three pictures per spot were obtained. The Cy-5 intensities of the ligands based on the localization of the GFP- signal of the mitochondria were calculated by the commercially available software cellSens from Olympus. Statistical analysis was performed using GraphPad Prism (version 8).

σ1 receptor [4] = molecular target: T2, σ1 receptor (Homo sapiens, UniProt Q99720); test: Flow cytometry studies in MCF7σ1 cells; format: cell-based
T2 construct: expressed in transfected cells
T2 sequence (Q99720 whole entry, species assumed): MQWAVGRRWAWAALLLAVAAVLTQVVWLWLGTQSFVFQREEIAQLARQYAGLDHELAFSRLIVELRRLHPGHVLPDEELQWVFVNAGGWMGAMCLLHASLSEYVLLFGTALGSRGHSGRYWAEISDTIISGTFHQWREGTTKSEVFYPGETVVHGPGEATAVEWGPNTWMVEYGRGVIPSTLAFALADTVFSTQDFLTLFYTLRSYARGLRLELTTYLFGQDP

MCF7 cells [5] = test: Live cell imaging in MCF7 cells; format: cell-based, human; conditions: live cell videos
σ2 receptor [6] = molecular target: T1, σ2 receptor; test: Confocal microscopy, co-localization with σ2 receptor (TMEM97 ab) in fixed MCF7 cells; format: cell-based; set-up: This cell line was selected on the basis of its high σ2 receptor expression levels; endogenous in cells; host or cells: MCF7 (and MCF7KO, partial TMEM97 knockdown by shRNA); conditions: 5 μM, 1 h
Protocol: Subsequently, the cells were treated with the indicated concentrations of 19 or 29 for 1 h at 37 °C. Then, the cells were washed once with PBS, harvested by trypsinization, and resuspended in 1 mL of PBS. Then, the cell preparation for confocal microscopy by using Cytospin was carried out as described by Koh et al.,[75] followed by cell fixation with 4% paraformaldehyde at room temperature for 30 min. For the staining of σ2 receptor expression, cells were permeabilized and blocked with 0.5% Triton X-100 and 1% BSA, respectively, in PBS for 30 min at room temperature followed by incubation of the primary TMEM97 antibody (diluted 1:200 in 1% BSA/0.3% Triton-PBS, Novusbio, catalog no. NBP1-30436) overnight at 4 °C in a wet chamber. The next day, the cells were washed three times with PBS and incubated with a 1:500 dilution of a secondary anti-rabbit AlexaFluor488-labeled antibody (Invitrogen, catalog no. A-11034) for 1 h at room temperature in a wet chamber. After being washed twice with PBS, the cells were incubated with a solution containing DAPI (2.5 μg/mL, D9542) for 15 min at room temperature, followed by three washes with PBS as well as ddH2O and embedding with Vectashield (Vectashield Antifade Mounting Media, Vector Laboratories, caalog no. H-1000-10). […]

MCF7 cells [7] = test: Trypan blue assay; format: cell-based, human; conditions: conditions of confocal microscopy, data not shown
[8] = Fluorescence spectroscopy and quantum yield measurements; format: physicochemical; conditions: CHCl3
σ2 receptor [9] = molecular target: T1, σ2 receptor; test: Flow cytometry studies in MCF7 and MCF7KO cells; format: cell-based; set-up: This cell line was selected on the basis of its high σ2 receptor expression levels; endogenous in cells; host or cells: MCF7 (and MCF7KO, partial TMEM97 knockdown by shRNA); conditions: for accumulation (mean fluorescence intensity) in MCF7 and MCF7KO cells: 10 nM-10 μM, 45 min, σ1 masked with 10 μM (+)-pentazocine; for signal in MCF7KO cells compared with MCF7 cells: flow cytometry, σ2 receptor partially silenced
Protocol: Subsequently, the cells were harvested by trypsinization and resuspended in 250 μL of FACS-PBS. The fluorescence intensity was measured by flow cytometry using a BD LSRFortessaTM X-20 cell analyzer (Becton Dickinson, Palo Alto, CA). For this, in total 20000 cells per sample were evaluated. The results were analyzed and quantified using BD FACSDivaTM software.

σ1 receptor [10] = molecular target: T3, σ1 receptor (Cavia porcellus, UniProt Q60492); test: σ1 receptor radioligand binding assay with (+)-[3H]pentazocine, guinea pig brain membranes; conditions: mean of at least two experiments in duplicate, read-out: Ki ± SEM σ1
T3 construct: from tissue; host or cells: guinea pig brain without cerebellum (male Dunkin guinea pigs, Envigo)
T3 sequence (Q60492 whole entry): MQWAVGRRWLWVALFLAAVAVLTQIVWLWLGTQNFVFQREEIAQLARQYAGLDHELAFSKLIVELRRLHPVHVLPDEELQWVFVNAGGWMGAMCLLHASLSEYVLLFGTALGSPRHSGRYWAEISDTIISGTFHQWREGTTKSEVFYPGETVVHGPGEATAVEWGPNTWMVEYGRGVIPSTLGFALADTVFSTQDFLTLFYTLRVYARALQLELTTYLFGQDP
Protocol: (§1) All of the procedures for the binding assays were previously described. σ1 and σ2 receptor binding assays were carried out according to the literature.[25] […] Incubations were stopped by addition of 1 mL of ice-cold buffer [50 mM TRIS (pH 8.0)], and then the suspension was filtered through GF/B presoaked in 0.3% polyethylenimine (PEI) for at least 60 min prior to use. The filters were washed twice with 1 mL of ice-cold buffer. […] Incubations were stopped by addition of 1 mL of ice-cold buffer [50 mM TRIS (pH 8.0)], and then the suspension was filtered through GF/B presoaked in 0.5% polyethylenimine (PEI) for at least 60 min prior to use. The filters were washed twice with 1 mL of ice-cold buffer. […] Scatchard parameters (Kd and Bmax) and apparent inhibition constants (Ki) were determined by nonlinear curve fitting using GraphPad Prism (version 5.0).[64]

σ2 receptor [11] = molecular target: T4, σ2 receptor (Rattus norvegicus, UniProt Q5U3Y7); test: σ2 receptor radioligand binding assay with [3H]DTG, rat liver membranes; conditions: for Ki: [3H]DTG with 1 μM (+)-pentazocine, rat liver membranes, mean of at least two experiments in duplicate, read-out: Ki ± SEM σ2
T4 construct: from tissue; host or cells: rat liver (Wistar Hannover rats, Envigo)
T4 sequence (Q5U3Y7 1-176): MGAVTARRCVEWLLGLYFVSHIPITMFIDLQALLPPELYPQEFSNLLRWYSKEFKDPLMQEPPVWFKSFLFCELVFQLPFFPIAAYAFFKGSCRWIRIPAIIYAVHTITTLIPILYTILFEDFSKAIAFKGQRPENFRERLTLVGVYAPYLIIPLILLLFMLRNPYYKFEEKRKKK
Protocol: as §1

[12] = DTG (20 μM) as non-fluorescent σ2 reference ligand
[13] = compound 2 (10 μM) as non-fluorescent σ2 reference ligand

SMILES: C[N+]1=C(/C=C/C=C/C=C2\N(CCCCCC(=O)NCCCCCCn3cc(CCCCN4CCC5(CC4)OCc4ccccc45)c4ccccc43)c3ccccc3C2(C)C)C(C)(C)c2ccccc21.[I-] [Compound 19, 2-{(1E,3E)-5-[(E)-1-{6-[(6-{3-[4-(3H-Spiro[isobenzofuran-1,4′-piperidin]-1′-yl)butyl]-1H-indol-1-yl}hexyl)amino]-6-oxohexyl}-3,3-dimethylindolin-2-ylidene]penta-1,3-dien-1-yl}-1,3,3-trimethyl-3H-indol-1-ium]
- stability [1]: stability of the two compounds was demonstrated
- Kd (σ2 receptor [2]; [12]): 13.6 nM
- Kd (σ2 receptor [2]; [13]): 19.3 nM
- subcellular localization in living MCF7 cells (σ2 receptor [3]): mitochondrial localization
- mitochondrial localization upon co-treatment with nonfluorescent DTG (σ2 receptor [3]): significantly reduced
- uptake in MCF7σ1 cells upon administration of (+)-pentazocine (σ1 receptor [4]; σ2 masked with 2 (10 μM), (+)-pentazocine 10 μM): abated
- fluorescent signal in MCF7σ1 cells (σ1 receptor [4]; σ2 receptor masked with 10 μM compound 2): dose-dependent increase
- entry into living MCF7 cells (MCF7 cells [5]): rapid entry
- subcellular localization versus σ2 receptor distribution (TMEM97ab) (σ2 receptor [6]): overlapped with the σ2 receptor distribution
- cytotoxicity (MCF7 cells [7]): neither 19 nor 29 was cytotoxic
- quantum yield [8]: 52.86%
- λem [8]: 678 nm
- λex [8]: 657 nm
- accumulation (mean fluorescence intensity) in MCF7 and MCF7KO cells (σ2 receptor [9]): dose-dependent manner
- signal in MCF7KO cells compared with MCF7 cells (σ2 receptor [9]): visibly weaker
- Ki (σ1 receptor [10]): 51.3 ± 3.2 nM
- Ki (σ2 receptor [11]): 30.2 ± 3.5 nM

SMILES: C[N+]1=C(/C=C/C=C/C=C2/N(CCCCCC(=O)Nc3ccc4ccn(CCCCN5CCC6(CC5)OCc5ccccc56)c4c3)c3ccccc3C2(C)C)C(C)(C)c2ccccc21.[I-] [Compound 29, 2-[(1E,3E)-5-{(Z)-1-[6-({1-[4-(3H-Spiro[isobenzofuran-1,4′-piperidin]-1′-yl)butyl]-1H-indol-6-yl}amino)-6-oxohexyl]-3,3-dimethylindolin-2-ylidene}penta-1,3-dien-1-yl]-1,3,3-trimethyl-3H-indol-1-ium]
- stability [1]: stability of the two compounds was demonstrated
- Kd (σ2 receptor [2]; [12]): 18.7 nM
- Kd (σ2 receptor [2]; [13]): 13.8 nM
- subcellular localization in living MCF7 cells (σ2 receptor [3]): mitochondrial localization
- mitochondrial localization upon co-treatment with nonfluorescent DTG (σ2 receptor [3]): significantly reduced
- entry into living MCF7 cells (MCF7 cells [5]): rapid entry
- subcellular localization versus σ2 receptor distribution (TMEM97ab) (σ2 receptor [6]): overlapped with the σ2 receptor distribution
- cytotoxicity (MCF7 cells [7]): neither 19 nor 29 was cytotoxic
- quantum yield [8]: 47.83%
- λem [8]: 678 nm
- λex [8]: 657 nm
- accumulation (mean fluorescence intensity) in MCF7 and MCF7KO cells (σ2 receptor [9]): dose-dependent manner
- signal in MCF7KO cells compared with MCF7 cells (σ2 receptor [9]): visibly weaker
- Ki (σ1 receptor [10]): 448 ± 80 nM
- Ki (σ2 receptor [11]): 51.1 ± 5.1 nM
- σ2 selectivity over σ1 (σ2 receptor [11]; from Ki values at σ1 and σ2): ~10 fold
